Consider two compounds from patent US9498466B2, “Pyrrole inhibitors of S-nitrosoglutathione reductase as therapeutic agents” (Nivalis Therapeutics, Inc., priority 2008, dated 2016).

The subject of test [1] is OVA sensitized mice. As to the kind of experiment: GSNOR inhibition assay in an in vivo animal model: OVA mouse model of asthma, methacholine challenge, Penh. The conditions noted are these: 1 mg/kg, 10 mg/kg or 30 mg/kg intravenously at 24 hours prior. The method, then: In an effort to determine if similar observations would manifest if GSNOR were inhibited pharmacologically by a GSNOR inhibitor, an OVA mouse model (i.e., the wild-type model of Que et al.) was used. In this study, OVA sensitized mice were administered 1 mg/kg, 10 mg/kg or 30 mg/kg of Compound 1 intravenously at 24 hours prior to being placed in a whole body plethysmograph (Buxco Research Systems, Wilmington, N.C.) and provided with fresh air.
Subject animals were then challenged with an aerosol of increasing dosages of the bronchoconstrictive agent methacholine, a pharmacologic agent commonly used in determining the degree of bronchial hyper-reactivity in experimental subjects. In this study mice were exposed to an increasing concentration of methacholine, each dose being presented for 3 minutes, during which time readings were taken. Doses of methacholine were 0 mg/ml, 5 mg/ml, 20 mg/ml, and 50 mg/ml. The degree of bronchial hyper-reactivity was measured as the ‘Enhanced Pause’ (Penh), a unit-less index of airway hyper-reactivity (Dohi et al., Lab Invest. 79(12):1559-1571, 1999).

Test [2] deals with mouse model of ovalbumin (OVA)-induced asthma. As to the kind of experiment: Experimental asthma model: pulmonary function testing (Penh) after MCh challenge. It counts as in vivo. The conditions noted are these: read-out: area under the curve (AUC) for Penh response reported as percent of vehicle control.
Protocol: A mouse model of ovalbumin (OVA)-induced asthma was used to screen GSNOR inhibitors for efficacy against methacholine (MCh)-induced bronchoconstriction/airway hyper-reactivity. […] Efficacy of GSNOR inhibitors were assessed using a prophylactic protocol in which GSNOR inhibitors were administered prior to challenge with MCh. Bronchoconstriction in response to challenge with increasing doses of MCh was assessed using whole body plethysmography (Penh; Buxco). […] The effect of GSNOR inhibitors were compared to vehicles and to Combivent (inhaled; IH) as the positive control. […]
In vivo airway responsiveness to methacholine was measured 24 h after the last OVA challenge in conscious, freely moving, spontaneously breathing mice with whole body plethysmography using a Buxco chamber (Wilmington, N.C.). […] The degree of bronchoconstriction was expressed as enhanced pause (Penh), a calculated dimensionless value, which correlates with the measurement of airway resistance, impedance, and intrapleural pressure in the same mouse. Penh readings were taken and averaged for 4 min. after each nebulization challenge. Penh was calculated as follows: Penh enh=[(Te/Tr−1)×(PEF/PIF)], where Te is expiration time, Tr is relaxation time, PEF is peak expiratory flow, and PIF is peak inspiratory flow×0.67 coefficient. […]

Consider `Cc1cc(C(N)=O)ccc1-n1c(CCC(=O)O)ccc1-c1ccc(-n2ccnc2)cc1` [Compound 1, 3-(5-(4-(1H-imidazol-1-yl)phenyl)-1-(4-carbamoyl-2-methylphenyl)-1H-pyrrol-2-yl)propanoic acid], for which the “broncho-constrictive responses to methacholine (Penh) compared with vehicle-only dosed animals” value in test [1] is “lower broncho-constrictive responses”. `Cc1cc(C(N)=O)ccc1-n1c(CCC(=O)O)ccc1-c1ccc(Br)cc1` [Compound 7, 3-(5-(4-bromophenyl)-1-(4-carbamoyl-2-methylphenyl)-1H-pyrrol-2-yl)propanoic acid]: the response vs control in vivo at 0.1 mg/kg in test [2] (single IV dose of 0.1 mg/kg at 24 h prior to MCh) worked out at 56.1 ± 2.2%. Besides, the response vs control in vivo at 1 mg/kg in test [2] (single IV dose of 1 mg/kg at 24 h prior to MCh) came to 50.4 ± 3.7%.
